Experimental data published in patent US20030124566A1, “5-Hydroxytryptamine transporter gene polymorphisms” (priority 2000, published 2003).
Structures can show the parent of a compound that is named as a salt.

Tests used:
[1] = tested on: patients with Irritable Bowel Syndrome (IBS); conditions: double-blind, placebo controlled studies (literature); cited from earlier work
[2] = tested on: female human subjects with IBS (non-constipated); test: Double-blind, placebo controlled clinical trials of alosetron for the treatment of IBS, response stratified by 5HTT genotype; assay type: in vivo; conditions: for proportion of patients achieving response (relief of IBS symptoms): relief during six weeks of twelve week treatment
From the text: FIG. 1 is a graph based on data collected from female patients enrolled in clinical trials of alosetron for the treatment of IBS. The study population was comprised of non-constipated individuals with IBS. The subjects were divided into 5HTT genotypes. Of the 219 subjects, 71 (32.4%) were del/del 5HTT, 75 (34.2%) were del/ins 5HTT and 73 (33.3%) were ins/ins 5HTT. […] “Response” was defined as relief of IBS symptoms (abdominal pain and discomfort) during six weeks of a twelve week treatment study. Two hundred and nineteen subjects, received either alosetron (102 subjects) or matched placebo (117 subjects). The proportion of patients achieving response following treatment with alosetron was 68% (21/31) for del/del 5HTT, 64% (21/33) for del/ins 5HTT and 58% (22/38) for ins/ins 5HTT. The proportion of patients achieving response following treatment with placebo was 58% (23/40) for del/del 5HTT, 38% (16/42) for del/ins 5HTT and 34% (12/35) for ins/ins 5HTT.
FIG. 2 compares, among 5HTT genotypes, the percentage of alosetron-treated subjects who reported constipation. Of the 102 alosetron treated subjects, the proportion of subjects reporting constipation was 13% (4/31) for del/del 5HTT, 30% (10/33) for del/ins 5HTT and 21% (8/38) for ins/ins 5HTT.
Genetic samples were obtained from 219 female human subjects enrolled in clinical trials of alosetron for the treatment of IBS. Using PCR technology as is known in the art, an insertion/deletion genetic marker was assayed in the 5-hydroxytryptamine transporter gene (5HTT gene). The alleles were labeled as “del” (deletion) or “ins” (insertion) resulting in three possible genotypes (del/del; del/ins or ins/ins).
The subjects' response to alosetron in the clinical trial setting was reviewed and correlated with genotype. In the double-blind, placebo controlled clinical trials, subjects received 12 weeks of treatment with either alosetron or a placebo. A favorable response to alosetron was when a subject reported relief of IBS symptoms during six weeks of the twelve week trial. The incidence of various other effects, including constipation, was also recorded.
The response of subjects to treatment with alosetron in the clinical trial was stratified according to genotype.
The occurrence of constipation during alosetron treatment in the clinical trial was stratified according to genotype. […] In del/del subjects (n=31), 4 (13%) reported constipation; in del/ins subjects (n=33), 10 (30%) reported constipation; and in ins/ins subjects (n=38), 8 (21)% reported constipation (FIG. 2).

In the case of `Cc1[nH]cnc1CN1CCc2c(c3ccccc3n2C)C1=O` [alosetron, Alosetron hydrochloride], the “effect on pain and bowel function in IBS patients” value [1] is listed as “reduce pain and improve bowel function”, the “proportion of subjects reporting constipation” value ([2]; del/del 5HTT genotype, alosetron-treated, 4/31 subjects) is listed as 13% and the “proportion of patients achieving response (relief of IBS symptoms)” value (from here on “proportion … (relief of IBS symptoms)”) ([2]; del/del 5HTT genotype, 21/31 subjects) is listed as 68%. For the same compound, the “proportion of subjects reporting constipation” value ([2]; del/ins 5HTT genotype, alosetron-treated, 10/33 subjects) was 30%, the “proportion … (relief of IBS symptoms)” value ([2]; del/ins 5HTT genotype, 21/33 subjects) was 64% and the “relief of IBS symptoms compared with placebo” value ([2]; in each of the three 5HTT genotypes) was “more effective than placebo”. The “proportion of subjects reporting constipation” value ([2]; ins/ins 5HTT genotype, alosetron-treated, 8/38 subjects) was 21%, the “proportion … (relief of IBS symptoms)” value ([2]; ins/ins 5HTT genotype, 22/38 subjects) was 58% and the “proportion of subjects reporting constipation” value ([2]; total group of subjects receiving alosetron (n=102)) was 21%.
